Results taken from US20240158448A1, “MULTIVALENT NANO-'SELF' PEPTIDES AND USES THEREOF” (THE TRUSTEES OF THE UNIVERSITY OF PENNSYLVANIA, priority 2021, published 2024).
Entries after “also recorded” stand apart in the source; their conditions may differ. No end group written: not given here.

Legend:
[1] = tested on: mouse bone marrow derived macrophages (BMDMs); test: Phagocytosis of anti-TYRP1 opsonized B16F10 melanoma cells by mouse bone marrow derived macrophages; format: cell-based; conditions: 50 μM peptide
Protocol: B16F10 cells: Bone marrow cells were isolated from femurs and tibias of healthy C57BL6/J mice (The Jackson Laboratory) and cultured in 10-cm petri dishes containing IMDM (Gibco) supplemented with 10% v/v FBS, 1% v/v penicillin/streptomycin, and 1:10,000 macrophage colony stimulating factor cytokine (M-CSF; Biolegend) for 7 days at 37° C., 5% CO2 and 95% humidity. All animal experiments were performed according to protocols approved by the University of Pennsylvania's IACUC (protocol #805977 and #804455). The resulting mouse bone marrow derived macrophages (BMDMs) were washed with PBS containing Ca2^+/Mg2^+ (Gibco) then detached with 0.25% trypsin-EDTA (Gibco) and re-plated in 6-well tissue culture plates using IMDM+M-CSF for 24 hours.
Mouse melanoma B16F10 cells were washed with PBS containing Ca2-/Mg2- and then trypsinized with 0.05% trypsin-EDTA. After washing twice with PBS, the cells were labeled with 1:10,000 CFDA—SE (Thermo Fisher) in PBS for 10 minutes. B16F10 cells were opsonized with 10 μg/mL anti-TYRP1 (TA99; Bio X Cell) in PBS for 2 hours at 4° C.with occasional inverting. For CD47 blocked B16F10 cells, 5 μg/mL of […] were added. During the incubation time, the BMDMs were washed with media then stained with 1:2,000 CellTracker Deep Red (Thermo Fisher) in PBS with Ca2^+/Mg2^+ for 10 min. After washing, 50 μM of the nano—Self peptides were incubated with the BMDMs for 1 hour at 37° C., 5% CO2 and 95% humidity. Finally, BMDMs were washed twice with PBS and then twice with serum-free IMDM.
Without removing the supernatant, the opsonized melanoma cells were added to the labeled BMDMs at a ratio of 2:1 for 2 hours at 37° C., 5% CO2 and 95% humidity. During the last 15 minutes of the assay, the cells were Hoechst stained. The wells were washed with serum free IMDM then fixed with 4% formaldehyde for 15 minutes at RT, and PBS washed. Fluorescence imaging was performed using an Olympus IX71 with a digital EMCCD camera (Cascade 512B) and a 40×/0.6 NA objective. Quantification was done with ImageJ (NIH). At least 200 cells were analyzed and two-tailed student's t-test was used to determine statistical significance.

human THP-1 macrophages [2] = test: In vitro phagocytosis assay: opsonized human RBCs engulfed by peptide-treated THP-1 macrophages; format: cell-based
Protocol: In vitro phagocytosis assay. Fresh human RBCs were washed twice with 50 mM EDTA (Thermo Fischer) in PBS (Gibco) then twice with 5% FBS in PBS. RBCs were opsonized with 20 μg/mL rabbit anti-human RBC antibody (Rockland) in 5% FBS for 1 hour at RT with shaking. For CD47 blocked RBCs, 5 μg/mL of mouse anti-human CD47 (B6H12; BD Biosciences) were added. Thereafter, RBCs were washed with PBS three times and stained with PKH26 dye (1:800 dilution in PBS; Sigma) for 1 hour at RT with shaking in the dark. RBCs were washed and resuspended in PBS.
THP-1 monocytes were PMA differentiated in RPMI for 48 hours. Macrophages were then washed with RPMI media three times. For SIRPα blocked THP-1 macrophages, 20 nM, 1 μM or 50 μM of the nano—Self peptides were incubated with the THP-1 macrophages for 1 hour at 37 ° C., 5% CO2 and 95% humidity. Those THP-Is were then washed with RPMI three times.
(§1) CO2 and 95% humidity. Macrophages were then washed with RPMI three times. Adherent and uninternalized RBCs were lysed with water for 30 seconds followed by immediate replacement with RPMI media. In order to distinguish remaining adherent RBCs from internalized RBCs, opsonized RBCs were stained with AlexaFluor 647 donkey anti-rabbit (binds to rabbit polyclonal opsonin on RBC; Invitrogen) IgG (1:1000) while unopsonized, CD47 blocked RBCs were stained with AlexaFluor 647 donkey anti-mouse (binds to mouse monoclonal anti-CD47 on RBCs; Invitrogen) IgG (1:1000) for 30 minutes. After washing, macrophages were fixed with 4% formaldehyde for 15 minutes at RT, washed with PBS, stained with 1 μg/mL Hoechst 33342, and then washed with PBS again. Fluorescence imaging was performed as described elsewhere herein and quantification was done using ImageJ. At least 200 cells were analyzed and experiments were repeated at least three times.

human THP-1 macrophages [3] = test: Residual adhesion of opsonized RBCs to macrophages; format: cell-based; conditions: 50 μM peptide
Source text: To measure the residual adhesion of RBCs and distinguish it from internalization by macrophages, the engulfment assay with human RBCs used a secondary antibody against the opsonizing IgG, which allowed us to clearly see RBCs in contact with macrophages that are not internalized (FIG. 29C). The cells are also firmly attached to the macrophages because the culture dishes were rinsed after fixation and secondary antibody labeling. […] All of the RBCs in these samples are equally opsonized with IgG that binds Fc-receptors (FcR's) on macrophages, and so differences in measured adhesion implicate differences in the CD47—SIRPα interaction.

THP-1 macrophages = test: Phosphotyrosine (pTyr) staining of THP-1 macrophages; format: cell-based, human; conditions: 50 μM peptide
Protocol: Phosphotyrosine (pTyr) staining. THP-1 monocytes were PMA differentiated for 48 hours. Macrophages were washed with RPMI three times then incubated with 50 μM and 20 nM of either nS-F or nS-FF for 1 hour at 37° C., 5% CO2 and 95% humidity. The same conditions were replicated with the addition of 5 μg/mL anti-CD47. Excess peptide was washed with PBS then macrophages were fixed. […] After washing with PBS, the macrophages were incubated with 1:100 mouse anti-pTyr (Santa Cruz Biotechnology) for 1 hour at room temperature with shaking. Macrophages were washed with PBS then stained with AlexaFluor 488 donkey anti-mouse (1:1000; Invitrogen) and 1 μg/mL Hoechst 33342 for 1 hour with shaking then washed again. Fluorescence imaging and quantification was performed as described elsewhere herein.

[4] = tested on: A549 (SIRPα positive) cells; test: Confocal live staining with FAM-labeled peptides, A549 cells; format: binding, human; conditions: 100 uM and 1 μM FAM-labeled peptide
Protocol: SIRPα staining and confocal imaging. THP-1 monocytes were PMA-differentiated in RPMI 1640 for 24 hours. J774A.1, A549, and COS-1 cells were plated for 24 hours in media, respectively. Cells were washed with respective media prior to addition of fluorescent peptides. The peptides were left to incubate for 1 hour at 37 ° C., 5% CO2 and 95% humidity. For fixed cell staining, cells were incubated with 4% formaldehyde (Pierce) for 15 minutes prior to the addition of fluorescent peptides whereas for live cell staining, fixation was done after incubation with the FAM-labeled peptides. Nuclei were stained with 1 μg/mL Hoechst 33342 (Invitrogen). Cells were the washed PBS three times before analysis. Fluorescence imaging of fixed cells was performed using an Olympus IX71 with a digital EMCCD camera (Cascade 512B) and a 40×/0.6 NA objective. […] Quantification was done with ImageJ (NIH).
In order to visualize the uneven binding of the peptides to the surface of the macrophages, a live staining experiment of THP-1, J774A.1, and A549 cells, which all express SIRPα at different levels, was performed with FAM-labeled nS-wt and nS-X and analyzed by confocal microscopy (FIG. 11). […] Fluorescence of nS-X was consistently lower on THP-1 and J774A.1 macrophages relative to nS-wt. […]

[5] = tested on: mouse J774A.1 macrophages; test: In vitro phagocytosis assay: opsonized human RBCs engulfed by mouse J774A.1 macrophages; format: cell-based; conditions: saturating / 50 μM peptide
Protocol: as §1, with “In vitro phagocytosis assay. […] For CD47 blocked RBCs, 5 μg/mL of mouse anti-human CD47 (B6H12; BD Biosciences) were added. Thereafter, RBCs were washed with PBS three times and stained with PKH26 dye (1:800 dilution in PBS; Sigma) for 1 hour at RT with shaking in the dark. RBCs were washed and resuspended in PBS. J774A.1 macrophages were plated for 24 hours in RPMI. For SIRPα blocked J774A.1 macrophages, the same peptide blocking procedure as described elsewhere herein was used with the addition of a positive control using 5 μg/mL rat anti-mouse SIRPα ([…]; BD Biosciences). […] CO2” for “CO2”

soluble human SIRPα = biological target: T1, soluble human SIRPα (Homo sapiens, UniProt P78324); test: Binding of biotinylated peptides on streptavidin beads to soluble SIRPα
T1 construct: Soluble human SIRPα fused with glutathione s-transferase (SIRPα-GST); GST (glutathione S-transferase); made in house
Source text: SIRPα Expression and Purification. Soluble human SIRPα fused with glutathione s-transferase (SIRPα-GST) was expressed and purified as previously published (Tsai, et al., 2008, J. Cell Biol. 180:989-1003).
Peptide biotinylation: NHS-biotin (Thermo Fischer) was mixed with nS-wt and nS-V, respectively, following the manufacturer's protocol. The biotinylated peptides were dialyzed against PBS.
Streptavidin-beads binding: Streptavidin-coated polystyrene beads of 2.1 μm radius (Spherotech) were washed and blocked 3x in PBS plus 0.4% BSA. nS-wt-biotin or nS-V-biotin were incubated with the beads for 1 hour at room temperature with shaking. Beads were washed with PBS, then incubated with recombinant SIRPα for 1 hour in ice. Streptavidin beads were labeled with rabbit anti-streptavidin-FITC (Invitrogen) and SIRPα was stained with mouse anti-SIRPα-allophycocyanin (anti-SIRPα-APC; Invitrogen).

T1 sequence (P78324 31-373 limits assumed): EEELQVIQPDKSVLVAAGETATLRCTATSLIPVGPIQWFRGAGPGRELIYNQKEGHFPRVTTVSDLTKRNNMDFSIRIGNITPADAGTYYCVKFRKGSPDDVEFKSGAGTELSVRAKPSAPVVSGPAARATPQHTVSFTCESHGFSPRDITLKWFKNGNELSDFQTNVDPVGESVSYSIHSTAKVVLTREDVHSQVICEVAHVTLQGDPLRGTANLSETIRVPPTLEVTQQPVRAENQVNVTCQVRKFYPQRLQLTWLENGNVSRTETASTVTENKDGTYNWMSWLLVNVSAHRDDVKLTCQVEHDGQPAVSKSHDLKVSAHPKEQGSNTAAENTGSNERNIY

Row | Sequence | effect on phagocytosis of opsonized WT and SIRPα KO B16 cells [1] | effect on phagocytosis of opsonized RBCs (words) (human THP-1 macrophages [2]; saturating / 50 μM peptide) | effect on phagocytosis of opsonized RBCs (words) (human THP-1 macrophages [2]; saturating / 50 μM peptide, listed as nSX) | residual adhesion of opsonized RBCs to macrophages (human THP-1 macrophages [3]) | effect on pTyr signal (THP-1 macrophages) | effect on pTyr signal (THP-1 macrophages; listed as nSX) | binding to A549 cells [4] | effect on phagocytosis of opsonized RBCs (words) (human THP-1 macrophages [2]; 20 nM peptide) | increase of macrophage phagocytosis relative to nS-wt (human THP-1 macrophages [2]; saturating peptide) | effect on phagocytosis of opsonized RBCs (words) [5] | SIRPα binding to peptide-coated beads (soluble human SIRPα)
1 | LETVEGTR (LETVEGTR-NH2) [nS-X, scrambled control peptide] | no effect; also recorded: does not affect opsonization-driven eating | no effect is observed; also recorded: unaffected; also recorded: do not affect baseline engulfment of opsonized RBCs; also recorded: does not affect opsonization-driven eating of RBCs | do not have effects on phagocytosis | predominantly adherent RBCs | inhibition of phosphorylation is not observed | had no effect on pTyr | fluorescence was not observed at either concentration | – | – | – | –
2 | VTELFREG (VTELFREG-NH2) [nS-F, nano-Self peptide with Thr to Phe mutation] | Maximum levels of phagocytic macrophages | significantly greater than any other peptide tested; also recorded: Maximum levels of phagocytic macrophages | – | lowest amount of residual adhesion to macrophages | also suppressed pTyr | – | – | did not significantly change the amount of macrophage eating relative to anti-CD47 treatment; also recorded: only modest activity | roughly 25% | significantly greater than any other peptide tested | –
3 | VTELVREG [nS-V, VTELVREG] | – | activity profiles in phagocytosis assays that are similar to the monovalent nS-F | – | – | – | – | – | did not significantly change the amount of macrophage eating relative to anti-CD47 treatment | – | – | fluorescence is only observed in the presence of biotinylated peptide
